Several values for one entry are separate records, joined by “and”; a condition that tells them apart may be missing. Identical values can stand only once.
Key:
Format in all cases: in vivo
Ambrosia elatior [1] = assay: greenhouse post-emergence treatment, AMBEL; settings: 20 DAT, AMBEL
Method in brief: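 Greenhouse; post-emergence spray at 3–15 cm; aqueous EC formulation; 2–4 weeks; 0–100 visual score.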

Polygonum convolvulus = assay: greenhouse post-emergence treatment, POLCO; settings: POLCO, solo Ex. 5 62.5 gai/ha
Method in brief: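 Post-emergence greenhouse spray on 3–15 cm plants, sown direct or transplanted a few days before treatment. Scored visually on a 0–100 scale after 2 to 4 weeks; expected additive effect computed by Colby: E=X+Y−(X·Y/100).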

Ambrosia elatior [2] = assay: greenhouse pre-emergence treatment, AMBEL; settings: AMBEL
Method in brief: (§1)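 Pre-emergence spray of compounds, alone or as combinations formulated as 10% emulsion concentrate in water, directly after sowing in loamy sand (~3.0% humus); pots hooded until rooting, kept at 10-25° C or 20-35° C per species for 2 to 4 weeks. Damage scored 0-100 (100 = no emergence/complete destruction); Colby expected value E=X+Y−(X·Y/100).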

Alopecurus myosuroides = assay: greenhouse post-emergence treatment, ALOMY; settings: ALOMY
Method in brief: (§2)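 Greenhouse test in humus-containing (~3.0%) loamy sand at species-dependent temperatures of 10-25° C. or 20-35° C.; treatments applied in water. Damage rated visually after 2–4 weeks (0 = none, 100 = complete destruction or no emergence).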

Setaria viridis = assay: greenhouse post-emergence treatment, SETVI; settings: SETVI
Method in brief: as §2

Avena fatua = assay: greenhouse pre-emergence treatment, AVEFA; settings: AVEFA
Method in brief: as §1

Digitaria sanguinalis = assay: greenhouse post-emergence treatment, DIGSA; settings: 20 DAT, DIGSA
Method in brief: as §2

[3] = Ex. 5 solo, 62.5 gai/ha, 20 DAT

O=C(O)c1nc(C2CC2)ncc1-c1ccccc1Cl [Ex. 5]
30%: % activity, solo application (Ambrosia elatior [2]; 31.25 gai/ha, 20 DAT, Table X1) | % activity (Ambrosia elatior [2]; Table X10, 20 DAT, solo Ex. 5 31.25 gai/ha) | % activity (Setaria viridis; 20 DAT, solo Ex. 5 62.5 gai/ha) | % activity (Setaria viridis; Table X8, 20 DAT, solo Ex. 5 125 gai/ha) | % activity (Setaria viridis; Table X8, 20 DAT, solo Ex. 5 250 gai/ha) | % activity, solo application (Digitaria sanguinalis; 62.5 gai/ha, Table X3)
45%: % activity, solo application (Ambrosia elatior [2]; 62.5 gai/ha, 20 DAT, Table X1) | % activity (Ambrosia elatior [2]; Table X10, 20 DAT, solo Ex. 5 62.5 gai/ha) | % activity (Ambrosia elatior [2]; Table X11, 20 DAT, solo Ex. 5 62.5 gai/ha)
70%: % activity (Ambrosia elatior [2]; 20 DAT, solo Ex. 5 62.5 gai/ha) | % activity (Ambrosia elatior [2]; [3]) | % activity (Ambrosia elatior [2]; solo, 62.5 gai/ha, 20 DAT) | % activity (Ambrosia elatior [2]; solo, 125 gai/ha, 21 DAT) | % activity (Alopecurus myosuroides; solo Ex. 5 62.5 gai/ha, 20 DAT, 2nd series of rows) | % activity (Alopecurus myosuroides; solo Ex. 5 125 gai/ha, 20 DAT) | % activity (Alopecurus myosuroides; Table X12, 20 DAT, solo Ex. 5 31.25 gai/ha) | % activity (Alopecurus myosuroides; Table X12, 20 DAT, solo Ex. 5 62.5 gai/ha) | % activity (Setaria viridis; 21 DAT, solo Ex. 5 125 gai/ha) | % activity, solo application (Digitaria sanguinalis; 250 gai/ha, Table X4) | % activity, solo application (Digitaria sanguinalis; 250 gai/ha, Table X5)
20%: % activity (Ambrosia elatior [2]; 20 DAT, solo Ex. 5 31.25 gai/ha (Table X70))
55%: % activity (Setaria viridis; [3])
80%: % activity, solo application (Ambrosia elatior [1]; 125 gai/ha, Table X5) | % activity (Ambrosia elatior [1]; solo Ex. 5 62.5 gai/ha) | % activity (Ambrosia elatior [1]; solo Ex. 5 125 gai/ha) | % activity, solo application (Alopecurus myosuroides; 125 gai/ha, 20 DAT, Table X7) | % activity (Alopecurus myosuroides; solo Ex. 5 15 gai/ha, 20 DAT, 2nd series of rows) | % activity (Alopecurus myosuroides; solo Ex. 5 250 gai/ha, 20 DAT, 2nd series of rows) | % activity (Alopecurus myosuroides; solo Ex. 5 250 gai/ha, 21 DAT) | % activity (Alopecurus myosuroides; solo Ex. 5 500 gai/ha, 20 DAT, 2nd series of rows) | % activity (Alopecurus myosuroides; Table X12, 20 DAT, solo Ex. 5 125 gai/ha) | % activity (Alopecurus myosuroides; solo, 250 gai/ha, 20 DAT) | % activity (Avena fatua; Table X13, 20 DAT, solo Ex. 5 62.5 gai/ha)
60%: % activity (Polygonum convolvulus; 20 DAT) | % activity, solo application (Setaria viridis; 250 gai/ha, 20 DAT, Table X3) | % activity, solo application (Setaria viridis; 250 gai/ha, 20 DAT, Table X7)
85%: % activity (Ambrosia elatior [1]; solo, 62.5 gai/ha) | % activity (Ambrosia elatior [2]; 20 DAT, solo Ex. 5 125 gai/ha) | % activity, solo application (Alopecurus myosuroides; 250 gai/ha, 20 DAT, Table X5) | % activity (Avena fatua; Table X13, 20 DAT, solo Ex. 5 125 gai/ha)
0%: % activity, solo application (Ambrosia elatior [2]; 62.5 gai/ha, 20 DAT, Table X2) | % activity, solo application (Ambrosia elatior [2]; 62.5 gai/ha, 20 DAT, Table X6)
70% and 68%: % activity (Alopecurus myosuroides; solo Ex. 5 62.5 gai/ha, 20 DAT)
35% and 30% and 48%: % activity (Setaria viridis; solo Ex. 5 62.5 gai/ha, 20 DAT)
75%: % activity, solo application (Alopecurus myosuroides; 62.5 gai/ha, 20 DAT, Table X3) | % activity, solo application (Alopecurus myosuroides; 250 gai/ha, 20 DAT, Table X7) | % activity (Alopecurus myosuroides; solo, 62.5 gai/ha, 20 DAT) | % activity (Avena fatua; 20 DAT, solo Ex. 5 62.5 gai/ha) | % activity (Avena fatua; [3])
35%: % activity, solo application (Setaria viridis; 62.5 gai/ha, 20 DAT, Table X3) | % activity (Setaria viridis; solo Ex. 5 62.5 gai/ha, 21 DAT)
90%: % activity (Polygonum convolvulus; 21 DAT) | % activity, solo application (Avena fatua; 250 gai/ha, 20 DAT, Table X1) | % activity (Avena fatua; solo Ex. 5 125 gai/ha, 20 DAT) | % activity (Avena fatua; Ex. 5 solo, 125 gai/ha, 20 DAT) | % activity (Avena fatua; Table X9, 21 DAT, solo Ex. 5 250 gai/ha)
40%: % activity (Setaria viridis; 20 DAT, solo Ex. 5 125 gai/ha) | % activity (Setaria viridis; solo, 125 gai/ha, 20 DAT)
98%: % activity, solo application (Ambrosia elatior [2]; 250 gai/ha, 20 DAT, Table X1)
20% and 35%: % activity (Setaria viridis; solo, 62.5 gai/ha, 20 DAT)
10%: % activity (Ambrosia elatior [2]; 20 DAT, solo Ex. 5 31.25 gai/ha)
78%: % activity (Alopecurus myosuroides; solo Ex. 5 500 gai/ha, 20 DAT)
73%: % activity (Alopecurus myosuroides; solo Ex. 5 250 gai/ha, 20 DAT)
80% and 75%: % activity (Alopecurus myosuroides; solo, 125 gai/ha, 20 DAT)
65%: % activity (Setaria viridis; solo Ex. 5 250 gai/ha, 20 DAT) | % activity (Avena fatua; Table X13, 20 DAT, solo Ex. 5 31.25 gai/ha) | % activity, solo application (Digitaria sanguinalis; 125 gai/ha, Table X5)
50%: % activity, solo application (Setaria viridis; 250 gai/ha, 20 DAT, Table X4) | % activity (Setaria viridis; solo, 250 gai/ha, 20 DAT) | % activity, solo application (Digitaria sanguinalis; 125 gai/ha, Table X4)
